We go through nine compounds from ChEMBL document CHEMBL1156813 (J Med Chem, 2010).

A word on the Ki: it is a measure of affinity in units of concentration, obtained from inhibition or displacement. Read a high Ki as a looser hold on the target. For orientation: kinetic solubility means the concentration staying in solution when a stock, usually in DMSO, is diluted into the medium. One may read the IC50 as the concentration needed to halve the response being measured. Low values mean greater potency, high ones weaker potency.

For one series, the target named is Cannabinoid receptor 1 (Homo sapiens, UniProt P21554). The series can be described thus: biochemical. In kind it is cell-based, CHO.
Series [1] in a line: physchem. The note with it: phosphate buffered saline, pH 7.4.
Another series has as its target Cannabinoid receptor 2 (Homo sapiens, UniProt P34972). The series can be described thus: biochemical.
Series [2] can be described thus: physchem. Particulars: phosphate buffered saline, pH 2.
The target in a further series is Acetylcholinesterase (Homo sapiens, UniProt P22303). The series can be described thus: biochemical.

Converted amounts (≈) assume the structure as drawn.

Cannabinoid receptor 2, sequence (P34972 whole entry): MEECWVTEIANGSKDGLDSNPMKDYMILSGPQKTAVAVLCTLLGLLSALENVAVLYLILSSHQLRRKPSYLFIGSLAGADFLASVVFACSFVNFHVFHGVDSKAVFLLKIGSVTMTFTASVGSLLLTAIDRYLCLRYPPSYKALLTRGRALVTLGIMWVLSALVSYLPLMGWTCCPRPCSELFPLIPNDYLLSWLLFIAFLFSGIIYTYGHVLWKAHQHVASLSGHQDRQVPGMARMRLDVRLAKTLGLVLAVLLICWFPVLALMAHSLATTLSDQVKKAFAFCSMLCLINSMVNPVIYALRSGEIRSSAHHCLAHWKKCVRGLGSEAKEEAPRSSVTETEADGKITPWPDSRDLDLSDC
Cannabinoid receptor 1, sequence (P21554 whole entry): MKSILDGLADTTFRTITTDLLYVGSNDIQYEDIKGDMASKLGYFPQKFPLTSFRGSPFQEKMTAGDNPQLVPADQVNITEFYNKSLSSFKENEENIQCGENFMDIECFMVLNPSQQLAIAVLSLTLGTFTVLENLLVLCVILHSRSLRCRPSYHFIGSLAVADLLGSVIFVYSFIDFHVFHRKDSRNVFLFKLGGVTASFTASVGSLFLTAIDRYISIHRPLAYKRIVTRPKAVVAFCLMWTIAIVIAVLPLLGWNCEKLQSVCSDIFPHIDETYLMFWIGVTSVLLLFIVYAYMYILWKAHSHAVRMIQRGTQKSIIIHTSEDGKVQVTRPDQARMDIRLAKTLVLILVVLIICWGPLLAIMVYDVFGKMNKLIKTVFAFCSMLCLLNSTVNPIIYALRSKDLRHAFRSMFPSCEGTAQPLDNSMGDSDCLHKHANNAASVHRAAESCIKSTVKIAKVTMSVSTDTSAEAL
Acetylcholinesterase, sequence (P22303 whole entry): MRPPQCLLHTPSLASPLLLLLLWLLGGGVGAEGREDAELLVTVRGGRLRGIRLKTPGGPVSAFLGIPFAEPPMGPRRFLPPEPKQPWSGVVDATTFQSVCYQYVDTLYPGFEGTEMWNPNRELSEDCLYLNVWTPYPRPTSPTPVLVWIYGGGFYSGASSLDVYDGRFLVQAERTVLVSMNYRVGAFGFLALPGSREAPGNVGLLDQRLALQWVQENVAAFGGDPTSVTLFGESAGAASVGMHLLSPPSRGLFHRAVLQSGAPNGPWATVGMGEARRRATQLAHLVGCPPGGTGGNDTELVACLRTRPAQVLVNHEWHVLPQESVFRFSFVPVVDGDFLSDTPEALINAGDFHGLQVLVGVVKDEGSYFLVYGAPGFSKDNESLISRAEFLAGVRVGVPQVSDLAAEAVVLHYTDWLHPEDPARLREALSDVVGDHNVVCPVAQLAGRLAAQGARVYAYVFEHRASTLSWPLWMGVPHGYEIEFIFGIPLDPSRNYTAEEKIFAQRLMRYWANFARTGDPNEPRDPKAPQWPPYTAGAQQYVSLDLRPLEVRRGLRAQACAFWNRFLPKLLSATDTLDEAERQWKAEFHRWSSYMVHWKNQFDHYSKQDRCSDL
Description for Acetylcholinesterase: Inhibition of human recombinant AChE expressed in HEK293 cells by photometry

In the case of `CN1CCC(N/C(=N\S(=O)(=O)c2ccc(Cl)cc2)N2CC(c3ccccc3)C(c3ccc(Cl)cc3)=N2)CC1` (stereo unspecified), the Ki was 19 nM at Cannabinoid receptor 1 and > 1000 nM on Cannabinoid receptor 2. Further, the solubility (kinetic) in “physchem [1]” was 11 µM (≈ 6.28 µg/mL); in “physchem [2]” it was 65 µM (≈ 37.1 µg/mL).
On the same counts, the results for `CN(C)CCCN/C(=N\S(=O)(=O)c1ccc(Cl)cc1)N1CC(c2ccccc2)C(c2ccc(Cl)cc2)=N1.Cl` (stereo unspecified) are 3.1 nM, > 1000 nM, 38 µM and > 100 µM.
`CC(C)(O)CN=C(NS(=O)(=O)c1ccc(Cl)cc1)N1CC(c2ccccc2)C(c2ccc(Cl)cc2)=N1` (stereo unspecified): the Ki at Cannabinoid receptor 1 is 43 nM; at Cannabinoid receptor 2, > 1000 nM. For the same compound, the solubility (kinetic) in the series “physchem [1]” and in the series “physchem [2]” was 4 µM (≈ 2.18 µg/mL) throughout.
With `CN(C)CCN1CCN(/C(=N\S(=O)(=O)c2ccc(Cl)cc2)N2CC(c3ccccc3)C(c3ccc(Cl)cc3)=N2)CC1` (stereo unspecified), the Ki at Cannabinoid receptor 1 is 9.6 nM; at Cannabinoid receptor 2, > 1000 nM. Besides, the solubility (kinetic) in “physchem [1]” amounted to 4 µM (≈ 2.45 µg/mL); in the series “physchem [2]” it was 65 µM (≈ 39.9 µg/mL).
On to `O=S(=O)(/N=C(\NCCCCNc1c2c(nc3ccccc13)CCCC2)N1CC(c2ccccc2)C(c2ccc(Cl)cc2)=N1)c1ccc(Cl)cc1` (stereo unspecified), for which the inhibitory constant (Ki) at Cannabinoid receptor 1 was 42 nM; on Cannabinoid receptor 2, > 1000 nM.
As to `O=S(=O)(N=C(NCCCCN1CCCC1)N1CC(c2ccccc2)C(c2ccc(Cl)cc2)=N1)c1ccc(Cl)cc1` (stereo unspecified), the inhibitory constant (Ki) is 27 nM at Cannabinoid receptor 1 and > 1000 nM at Cannabinoid receptor 2. In addition, the kinetic solubility is 11 µM (≈ 6.58 µg/mL) in “physchem [1]” and 38 µM (≈ 22.7 µg/mL) in “physchem [2]”.
For `CCc1c(C(=O)NN2CCCCC2)nc(-c2ccccc2Cl)n1-c1ccc(Cl)cc1`, the Ki at Cannabinoid receptor 1 was 14 nM; on Cannabinoid receptor 2, > 1000 nM. Further, the 50% inhibitory concentration (IC50) against Acetylcholinesterase was > 31600 nM.
Turning to `O=S1(=O)CCN(/C(=N\S(=O)(=O)c2ccc(Cl)cc2)N2CC(c3ccccc3)C(c3ccc(Cl)cc3)=N2)CC1` (stereo unspecified), the Ki was determined as 31 nM at Cannabinoid receptor 1 and 571 nM on Cannabinoid receptor 2. For the same compound, the kinetic solubility in “physchem [1]” was < 3 µM; in “physchem [2]”, < 7 µM.
For the compound `CNC(=NS(=O)(=O)c1ccc(Cl)cc1)N1CC(c2ccccc2)C(c2ccc(Cl)cc2)=N1` (stereo not drawn) [RAC-IBIPINABANT], the solubility (kinetic) in “physchem [1]” worked out at 2 µM (≈ 0.975 µg/mL); in the series “physchem [2]” it was 4 µM (≈ 1.95 µg/mL).
